Where two headings read alike, the source gives them in different places.
Tests used:
Format in all cases: cell-based
[1] = target: T1, human EAAT1 (Homo sapiens, UniProt P43003); assay: [3H]-D-aspartate uptake assay at HEK293 cells stably expressing human EAAT1
T1 construct: expressed in transfected cells
Excerpt: (§1) In total, […] piperazine analogs 2.1-2.40 and 3.1-3.12 were characterized pharmacologically at stable HEK293 cells expressing human EAAT1-3 in a [^3H]-D-aspartate uptake assay, (Jensen & Bräuner-Osborne [2004]) and the results are summarized in Table 1 and Table 2. […] Usually, such findings would lead to the conclusion that the bicyclo-[2.2.1]-heptanyl group occupies a promiscuous hydrophobic pocket, which could be optimized for increased potency. However, upon increasing or decreasing the hydrophobic bulk and/or flexibility, a clear drop in potency was observed (analogs 2.1-2.17, Table 1). […] These findings could open up for the hypothesis that the pocket is indeed not hydrophobic but instead hydrophilic in nature. Upon binding of the hydrophobic alkane group, water molecules are forced out and ligand binding is entropically driven rather than enthalpically. Thus analogs 2.18-2.31, which comprise a hydrophobic group, could be potential inhibitors.
(§2) Analogs 2.22-2.31, 2.36-2.40, 3.3, 3.4, 3.6 and 3.12 were obtained as 5 mg portions pre-dissolved in DMSO from ChemBridge corporation and used directly in the [3H]-Asp-uptake assay.

[2] = target: T2, human EAAT3 (Homo sapiens, UniProt P43005); assay: [3H]-D-aspartate uptake assay at HEK293 cells stably expressing human EAAT3; settings: for EAAT3 pIC50 ± S.E.M.: value in brackets, Table 1
T2 construct: expressed in transfected cells
T2 sequence (P43005 1-524): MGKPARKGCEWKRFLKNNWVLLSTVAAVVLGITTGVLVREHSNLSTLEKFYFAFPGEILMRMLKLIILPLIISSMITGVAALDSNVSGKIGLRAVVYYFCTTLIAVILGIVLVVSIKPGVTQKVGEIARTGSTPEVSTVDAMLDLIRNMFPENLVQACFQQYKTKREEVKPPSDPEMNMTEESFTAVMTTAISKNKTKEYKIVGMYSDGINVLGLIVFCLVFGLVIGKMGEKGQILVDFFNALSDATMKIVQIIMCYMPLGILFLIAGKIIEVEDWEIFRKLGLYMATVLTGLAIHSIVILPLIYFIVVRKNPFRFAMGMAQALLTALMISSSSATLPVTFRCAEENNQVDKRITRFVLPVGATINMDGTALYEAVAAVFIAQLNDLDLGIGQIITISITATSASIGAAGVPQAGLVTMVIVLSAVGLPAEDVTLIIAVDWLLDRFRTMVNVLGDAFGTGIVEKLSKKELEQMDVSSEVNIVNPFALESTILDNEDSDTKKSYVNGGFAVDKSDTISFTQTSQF
Excerpt: as §1, §2

[3] = target: T3, human EAAT2 (Homo sapiens, UniProt P43004); assay: [3H]-D-aspartate uptake assay at HEK293 cells stably expressing human EAAT2
T3 construct: expressed in transfected cells
T3 sequence (P43004 whole entry): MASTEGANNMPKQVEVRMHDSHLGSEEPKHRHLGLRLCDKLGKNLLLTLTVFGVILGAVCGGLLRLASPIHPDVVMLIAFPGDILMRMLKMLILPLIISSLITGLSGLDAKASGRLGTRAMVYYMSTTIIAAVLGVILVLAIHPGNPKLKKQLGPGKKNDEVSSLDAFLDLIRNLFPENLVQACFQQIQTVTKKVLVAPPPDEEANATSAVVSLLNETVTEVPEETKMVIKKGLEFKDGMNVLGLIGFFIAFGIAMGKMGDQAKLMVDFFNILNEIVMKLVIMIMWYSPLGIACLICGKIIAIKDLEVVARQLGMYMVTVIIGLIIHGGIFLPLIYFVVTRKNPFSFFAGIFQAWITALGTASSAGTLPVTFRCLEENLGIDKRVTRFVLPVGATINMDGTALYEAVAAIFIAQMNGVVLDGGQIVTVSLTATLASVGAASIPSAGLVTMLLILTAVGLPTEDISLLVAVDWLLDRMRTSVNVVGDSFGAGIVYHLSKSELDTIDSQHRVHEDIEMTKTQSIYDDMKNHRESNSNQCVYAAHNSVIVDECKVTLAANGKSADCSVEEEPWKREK
Excerpt: as §1, §2

[4] = tested on: human EAAT1-3; assay: [3H]-D-aspartate uptake assay, statements made for EAAT1-3 together; settings: HEK293 cells expressing human EAAT1-3, [3H]-D-aspartate uptake
Excerpt: as §1, §2

[5] = [3H]-D-aspartate uptake, HEK293 cells stably expressing human EAAT1, analogs 1 and 2.1-2.40 (Table 1), read-out: EAAT1 IC50
[6] = [3H]-D-aspartate uptake, HEK293 cells stably expressing human EAAT3, analogs 1 and 2.1-2.40 (Table 1), read-out: EAAT3 IC50
[7] = [3H]-D-aspartate uptake, HEK293 cells stably expressing human EAAT2, analogs 1 and 2.1-2.40 (Table 1), read-out: EAAT2 IC50
[8] = D-aspartate uptake, HEK293 cells stably expressing human EAAT1, analogs 3.1-3.12 (Table 2), read-out: EAAT1 IC50
[9] = D-aspartate uptake, HEK293 cells stably expressing human EAAT3, analogs 3.1-3.12 (Table 2), read-out: EAAT3 IC50
[10] = D-aspartate uptake, HEK293 cells stably expressing human EAAT2, analogs 3.1-3.12 (Table 2), read-out: EAAT2 IC50

T1 sequence (P43003 whole entry): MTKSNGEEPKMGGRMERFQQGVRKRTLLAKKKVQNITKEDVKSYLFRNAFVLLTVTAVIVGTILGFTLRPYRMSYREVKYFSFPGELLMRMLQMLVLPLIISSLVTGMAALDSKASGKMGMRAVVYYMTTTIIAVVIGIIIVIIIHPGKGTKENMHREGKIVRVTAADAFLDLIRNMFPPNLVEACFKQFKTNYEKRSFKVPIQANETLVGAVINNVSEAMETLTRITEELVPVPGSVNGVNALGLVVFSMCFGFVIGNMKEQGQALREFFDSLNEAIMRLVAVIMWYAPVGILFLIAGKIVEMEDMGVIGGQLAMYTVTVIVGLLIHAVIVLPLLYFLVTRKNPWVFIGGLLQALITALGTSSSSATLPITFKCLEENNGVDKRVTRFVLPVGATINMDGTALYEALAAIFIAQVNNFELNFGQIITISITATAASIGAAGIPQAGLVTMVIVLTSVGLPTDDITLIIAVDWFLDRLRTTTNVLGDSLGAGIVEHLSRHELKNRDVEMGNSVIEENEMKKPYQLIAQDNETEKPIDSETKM

SMILES	IC50 [1, 5]	IC50 [2, 6]	IC50 [3, 7]	IC50 [1]	IC50 [2]	IC50 [3]	further results
FC(F)(F)c1cccc(N2CCN(CC3CC4CCC3C4)CC2)c1 (mixture of isomers) [(±)-endo-exo-2.34, (±)-endo-exo-Bicyclo[2.2.1]heptan-2-ylmethyl)-4-(3-(trifluoromethyl)phenyl)piperazine]	> 300 µM	> 300 µM	> 300 µM				
O=C(C1CC2CCC1C2)N1CCN(c2cccc(C(F)(F)F)c2)CC1 (mixture of isomers) [(±)-exo-1]	10 µM		40 µM				IC50 ([1]; value in brackets, Table 1, read-out: EAAT1 pIC50 ± S.E.M. (converted)): 9.33 µM; IC50 ([3]; value in brackets, Table 1, read-out: EAAT2 pIC50 ± S.E.M. (converted)): 36.3 µM; inhibitory activity at EAAT1-3 (in words) [4]: IC50 values at the three transporters in the mid-micromolar range
O=C([C@@H]1C[C@@H]2CC[C@H]1C2)N1CCN(c2cccc(C(F)(F)F)c2)CC1 (racemic) [(±)-endo-1, (±)-endo-Bicyclo[2.2.1]heptan-2-yl(4-(3-(trifluoromethyl)phenyl)piperazin-1-yl)methanone]	14 µM	10 µM	32 µM				EAAT1 pIC50 ± S.E.M. ([1]; value in brackets, Table 1): 4.88 ± 0.09; EAAT3 pIC50 ± S.E.M. [2]: 5.04 ± 0.13; EAAT2 pIC50 ± S.E.M. ([3]; value in brackets, Table 1): 4.52 ± 0.12; inhibitory activity at EAAT1-3 (in words) [4]: inhibitory potency in the mid-micromolar range
O=C(C1CC2CCC1C2)N1CCN(c2cccc(C(F)(F)F)c2)CC1 (racemic) [(±)-endo-exo-1, (±)-endo-exo-Bicyclo[2.2.1]heptan-2-yl(4-(3-(trifluoromethyl)phenyl)piperazin-1-yl)methanone]	14 µM	14 µM	42 µM				EAAT1 pIC50 ± S.E.M. ([1]; value in brackets, Table 1): 4.87 ± 0.08; EAAT3 pIC50 ± S.E.M. [2]: 4.94 ± 0.16; EAAT2 pIC50 ± S.E.M. ([3]; value in brackets, Table 1): 4.42 ± 0.11
O=C(C1CC2CCC1C2)N1CCN(c2ccccc2)CC1 (racemic) [(±)-endo-exo-3.1, Bicyclo[2.2.1]heptan-2-yl(4-phenylpiperazin-1-yl)methanone]							IC50 [1, 8]: > 300 µM; IC50 [2, 9]: > 300 µM; IC50 [3, 10]: > 300 µM; inhibitory activity at EAAT1-3 (in words) [4]: loss of inhibitory activity
O=C(C1CC2CCC1C2)N1CCN(c2ccccc2C(F)(F)F)CC1 (racemic) [(±)-endo-exo-3.5, (±)-endo-exo-Bicyclo[2.2.1]heptan-2-yl(4-(2-(trifluoromethyl)phenyl)piperazin-1-yl)methanone]							IC50 [1, 8]: ~300 µM; IC50 [2, 9]: > 300 µM; IC50 [3, 10]: > 300 µM; inhibitory activity at EAAT1-3 (in words) [4]: loss of inhibitory activity
O=C(C1CC2CCC1C2)N1CCN(c2cccc(Cl)c2)CC1 (racemic) [(±)-endo-exo-3.7, (±)-endo-exo-Bicyclo[2.2.1]heptan-2-yl(4-(3-chlorophenyl)piperazin-1-yl)methanone]							IC50 [1, 8]: ~300 µM; IC50 [2, 9]: > 300 µM; IC50 [3, 10]: ~300 µM
N#Cc1cccc(N2CCN(C(=O)C3CC4CCC3C4)CC2)c1 (racemic) [(±)-endo-exo-3.9, 3-(4-(bicyclo[2.2.1]heptane-2-carbonyl)piperazin-1-yl)benzonitrile]							IC50 [1, 8]: > 300 µM; IC50 [2, 9]: > 300 µM; IC50 [3, 10]: > 300 µM
COc1cccc(N2CCN(C(=O)C3CC4CCC3C4)CC2)c1 (racemic) [(±)-endo-exo-3.10, (±)-endo-exo-Bicyclo[2.2.1]heptan-2-yl(4-(3-methoxyphenyl)piperazin-1-yl)methanone]							IC50 [1, 8]: > 300 µM; IC50 [2, 9]: > 300 µM; IC50 [3, 10]: > 300 µM
O=C(C1CC2CCC1C2)N1CCN(c2ccc(F)cc2F)CC1 (racemic) [(±)-endo-exo-3.11, (±)-endo-exo-Bicyclo[2.2.1]heptan-2-yl(4-(2,4-difluorophenyl)piperazin-1-yl)methanone]							IC50 [1, 8]: > 300 µM; IC50 [2, 9]: > 300 µM; IC50 [3, 10]: > 300 µM
O=C(C1CC2CCC1CC2)N1CCN(c2cccc(C(F)(F)F)c2)CC1 (centres unmarked) [2.1, Bicyclo[2.2.2]octan-2-yl(4-(3-(trifluoromethyl)phenyl)piperazin-1-yl)methanone]	> 300 µM	> 300 µM	> 300 µM				
O=C(N1CCN(c2cccc(C(F)(F)F)c2)CC1)C12CC3CC(CC(C3)C1)C2 [2.2, Adamantan-1-yl(4-(3-(trifluoromethyl)phenyl)piperazin-1-yl)methanone]				> 300 µM	> 300 µM	> 300 µM	
O=C(C1CCCC1)N1CCN(c2cccc(C(F)(F)F)c2)CC1 [2.4, Cyclopentyl(4-(3-(trifluoromethyl)phenyl)piperazin-1-yl)methanone]				> 300 µM	> 300 µM	> 300 µM	
O=C(C1CC1)N1CCN(c2cccc(C(F)(F)F)c2)CC1 [2.5, Cyclopropyl(4-(3-(trifluoromethyl)phenyl)piperazin-1-yl)methanone]	> 300 µM	> 300 µM	> 300 µM				
CC(C)(C)C(=O)N1CCN(c2cccc(C(F)(F)F)c2)CC1 [2.6, 2,2-Dimethyl-1-(4-(3-(trifluoromethyl)phenyl)piperazin-1-yl)propan-1-one]				> 1000 µM	> 300 µM	> 300 µM	
CC(=O)N1CCN(c2cccc(C(F)(F)F)c2)CC1 [2.7, 1-(4-(3-(Trifluoromethyl)phenyl)piperazin-1-yl)ethanone]	> 1000 µM	> 100 µM	> 100 µM				
CC(C)CC(=O)N1CCN(c2cccc(C(F)(F)F)c2)CC1 [2.8, 3-Methyl-1-(4-(3-(trifluoromethyl)phenyl)piperazin-1-yl)butan-1-one]	> 300 µM	> 300 µM	> 300 µM				
CC(C)(C)CC(=O)N1CCN(c2cccc(C(F)(F)F)c2)CC1 [2.9, 3,3-Dimethyl-1-(4-(3-(trifluoromethyl)phenyl)piperazin-1-yl)butan-1-one]	> 300 µM	> 300 µM	> 300 µM				
CC(C)CCC(=O)N1CCN(c2cccc(C(F)(F)F)c2)CC1 [2.10, 4-Methyl-1-(4-(3-(trifluoromethyl)phenyl)piperazin-1-yl)pentan-1-one]	> 300 µM	> 300 µM	> 300 µM				
O=C(c1cccc(Oc2ccccc2)c1)N1CCN(c2cccc(C(F)(F)F)c2)CC1 [2.13, (3-Phenoxyphenyl)(4-(3-(trifluoromethyl)phenyl)piperazin-1-yl)methanone]	> 300 µM	> 300 µM	> 300 µM				
O=C(c1cccc2ccccc12)N1CCN(c2cccc(C(F)(F)F)c2)CC1 [2.15, Naphthalen-1-yl(4-(3-(trifluoromethyl)phenyl)piperazin-1-yl)methanone]				> 300 µM	> 300 µM	> 300 µM	
O=C(c1cccs1)N1CCN(c2cccc(C(F)(F)F)c2)CC1 [2.16, Thiophen-2-yl(4-(3-(trifluoromethyl)phenyl)piperazin-1-yl)methanone]				> 100 µM	> 100 µM	> 100 µM	
O=C(Cc1ccccc1)N1CCN(c2cccc(C(F)(F)F)c2)CC1 [2.17, 1-(4-(3-(Trifluoromethyl)phenyl)piperazin-1-yl)-2-phenylethanone]				> 300 µM	> 1000 µM	> 300 µM	
Nc1ccc(C(=O)N2CCN(c3cccc(C(F)(F)F)c3)CC2)cc1 [2.18, 4-Aminophenyl-(4-(3-(trifluoromethyl)phenyl)piperazin-1-yl)methanone]				> 300 µM	> 300 µM	> 300 µM	
Nc1cccc(C(=O)N2CCN(c3cccc(C(F)(F)F)c3)CC2)c1 [2.19, 3-Aminophenyl-(4-(3-(trifluoromethyl)phenyl)piperazin-1-yl)methanone]				> 300 µM	> 300 µM	> 300 µM	
NCC(=O)N1CCN(c2cccc(C(F)(F)F)c2)CC1 [2.20, 2-Amino-1-(4-(3-(trifluoromethyl)phenyl)piperazin-1-yl)ethanone]				> 300 µM	> 300 µM	> 300 µM	
FC(F)(F)c1cccc(N2CCN(Cc3ccccc3)CC2)c1 [2.35, 1-Benzyl-4-(3-(trifluoromethyl)phenyl)piperazine]				> 300 µM	> 1000 µM	> 300 µM	

— PMC4225009, “Structure-activity-relationship study of N-acyl-N-phenylpiperazines as potential inhibitors of the Excitatory Amino Acid Transporters (EAATs): improving the potency of a micromolar screening Hit is not truism” (SpringerPlus, 2013)
